# Target: T1, human mAChR M4 (Homo sapiens, UniProt P08173)
# T1 construct: expressed in transfected cells
# T1 sequence (P08173 1-479): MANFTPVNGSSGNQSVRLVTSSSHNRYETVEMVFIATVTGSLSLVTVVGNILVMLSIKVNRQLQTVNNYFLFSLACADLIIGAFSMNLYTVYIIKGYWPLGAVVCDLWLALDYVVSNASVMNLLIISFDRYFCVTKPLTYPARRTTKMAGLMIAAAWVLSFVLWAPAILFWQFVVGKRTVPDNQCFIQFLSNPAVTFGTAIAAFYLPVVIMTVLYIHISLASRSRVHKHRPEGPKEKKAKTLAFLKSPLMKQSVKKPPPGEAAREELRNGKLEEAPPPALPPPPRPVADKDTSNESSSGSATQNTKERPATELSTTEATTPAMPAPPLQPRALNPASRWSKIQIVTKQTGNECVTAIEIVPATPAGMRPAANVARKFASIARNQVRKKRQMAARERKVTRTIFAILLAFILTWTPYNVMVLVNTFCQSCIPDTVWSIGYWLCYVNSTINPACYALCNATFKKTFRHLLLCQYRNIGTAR
# Assay: mAChR M4 cell-based functional assay (calcium mobilization, CHO-K1 hM4-Gqi5 cells)
# Settings: for Emax at 30 µM: CHO-K1, % ACh maximum at 30 μM, human M4; for EC50: positive allosteric modulator activity, increase in the EC20 acetylcholine response, CHO-K1 hM4-Gqi5 cells, read-out: Human M4 EC50; for Emax: CHO-K1
# How it was run: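 CHO-K1 cells stably expressing human M4 with chimeric Gqi5, loaded with Fluo-4 AM; compounds given as 11-point 1:3 curves and calcium flux read on FDSS at 1 Hz. Acetylcholine EC20 added at 144 s, EC80 at 230 s; agonist, PAM (EC20 potentiation) and antagonist (EC80 inhibition) EC50/Emax from four-parameter fits.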
Emax at 30 µM [%],EC50 [nM],Compound,Emax [%]
58,666,"Cc1c(C#N)nnc(N2CCc3ncc(-c4cc(F)nc(F)c4)cc3C2)c1C [compound 75, 6-[3-(2,6-difluoro-4-pyridyl)-7,8-dihydro-5H-1,6-naphthyridin-6-yl]-4,5-dimethyl-pyridazine-3-carbonitrile]",–
76,1490,"COc1cc(-c2cnc3c(c2)CN(c2nnc(C#N)c(C)c2C)CC3)ccn1 [compound 76, 6-[3-(2-methoxy-4-pyridyl)-7,8-dihydro-5H-1,6-naphthyridin-6-yl]-4,5-dimethyl-pyridazine-3-carbonitrile]",–
89,198,"Cc1cnccc1-c1cnc2c(c1)CN(c1nnc(C#N)c(C)c1C)CC2 [compound 77, 4,5-dimethyl-6-[3-(3-methyl-4-pyridyl)-7,8-dihydro-5H-1,6-naphthyridin-6-yl]pyridazine-3-carbonitrile]",–
65,324,"Cc1c(C#N)nnc(N2CCc3ncc(Nc4ncc(F)cc4F)cc3C2)c1C [compound 78, 6-[3-[(3,5-difluoro-2-pyridyl)amino]-7,8-dihydro-5H-1,6-naphthyridin-6-yl]-4,5-dimethyl-pyridazine-3-carbonitrile]",–
82,232,"Cc1ccc(Nc2cnc3c(c2)CN(c2nnc(C#N)c(C)c2C)CC3)c(F)n1 [compound 79, 6-[3-[(2-fluoro-6-methyl-3-pyridyl)amino]-7,8-dihydro-5H-1,6-naphthyridin-6-yl]-4,5-dimethyl-pyridazine-3-carbonitrile]",–
72,300,"Cc1c(C#N)nnc(N2CCc3ncc(Nc4ncccc4F)cc3C2)c1C [compound 80, 6-[3-[(3-fluoro-2-pyridyl)amino]-7,8-dihydro-5H-1,6-naphthyridin-6-yl]-4,5-dimethyl-pyridazine-3-carbonitrile]",–
78,539,"Cc1c(C#N)nnc(N2CCc3ncc(Nc4nc(Cl)ncc4F)cc3C2)c1C [compound 81, 6-[3-[(2-chloro-5-fluoro-pyrimidin-4-yl)amino]-7,8-dihydro-5H-1,6-naphthyridin-6-yl]-4,5-dimethyl-pyridazine-3-carbonitrile]",–
82,157,"Cc1c(C#N)nnc(N2CCc3ncc(Nc4cc(Cl)cnc4F)cc3C2)c1C [compound 82, 6-[3-[(5-chloro-2-fluoro-3-pyridyl)amino]-7,8-dihydro-5H-1,6-naphthyridin-6-yl]-4,5-dimethyl-pyridazine-3-carbonitrile]",–
86,361,"Cc1nc(Cl)c(C)c(N2CCc3ncc(Nc4ccccc4F)cc3C2)n1 [compound 85, 6-(6-chloro-2,5-dimethyl-pyrimidin-4-yl)-N-(2-fluorophenyl)-7,8-dihydro-5H-1,6-naphthyridin-3-amine]",–
84,654,"Cc1nc(Cl)c(C)c(N2CCc3ncc(Nc4cccc(F)c4F)cc3C2)n1 [compound 86, 6-(6-chloro-2,5-dimethyl-pyrimidin-4-yl)-N-(2,3-difluorophenyl)-7,8-dihydro-5H-1,6-naphthyridin-3-amine]",–
82,815,"Cc1nc(Cl)c(C)c(N2CCc3ncc(Nc4ccc(F)cc4F)cc3C2)n1 [compound 87, 6-(6-chloro-2,5-dimethyl-pyrimidin-4-yl)-N-(2,4-difluorophenyl)-7,8-dihydro-5H-1,6-naphthyridin-3-amine]",–
86,731,"Cc1nc(Cl)c(C)c(N2CCc3ncc(Nc4cc(F)ccc4F)cc3C2)n1 [compound 88, 6-(6-chloro-2,5-dimethyl-pyrimidin-4-yl)-N-(2,5-difluorophenyl)-7,8-dihydro-5H-1,6-naphthyridin-3-amine]",–
80,716,"Cc1nc(Cl)c(C)c(N2CCc3ncc(Nc4c(F)cccc4F)cc3C2)n1 [compound 89, 6-(6-chloro-2,5-dimethyl-pyrimidin-4-yl)-N-(2,6-difluorophenyl)-7,8-dihydro-5H-1,6-naphthyridin-3-amine]",–
72,7600,"Cc1c(Cl)nc(C2CC2)nc1N1CCc2ncc(Nc3ccccc3F)cc2C1 [compound 90, 6-(6-chloro-2-cyclopropyl-5-methyl-pyrimidin-4-yl)-N-(2-fluorophenyl)-7,8-dihydro-5H-1,6-naphthyridin-3-amine]",–
67,5570,"Cc1c(Cl)nc(C2CC2)nc1N1CCc2ncc(Nc3cccc(F)c3F)cc2C1 [compound 91, 6-(6-chloro-2-cyclopropyl-5-methyl-pyrimidin-4-yl)-N-(2,3-difluorophenyl)-7,8-dihydro-5H-1,6-naphthyridin-3-amine]",–
82,218,"Cc1nc(Cl)c(C)c(N2CCc3ncc(-c4cnn(C)c4)cc3C2)n1 [compound 92, 6-(6-chloro-2,5-dimethyl-pyrimidin-4-yl)-3-(1-methylpyrazol-4-yl)-7,8-dihydro-5H-1,6-naphthyridine]",–
95,123,"Cc1cc(-c2cnc3c(c2)CN(c2nc(C)nc(Cl)c2C)CC3)ccn1 [compound 93, 6-(6-chloro-2,5-dimethyl-pyrimidin-4-yl)-3-(2-methyl-4-pyridyl)-7,8-dihydro-5H-1,6-naphthyridine]",–
91,96.9,"Cc1nc(Cl)c(C)c(N2CCc3ncc(-c4cncs4)cc3C2)n1 [compound 94, 5-[6-(6-chloro-2,5-dimethyl-pyrimidin-4-yl)-7,8-dihydro-5H-1,6-naphthyridin-3-yl]thiazole]",–
98,84.1,"Cc1cc(C#N)cnc1N1CCc2ncc(-c3cncs3)cc2C1 [compound 95, 5-methyl-6-(3-thiazol-5-yl-7,8-dihydro-5H-1,6-naphthyridin-6-yl)pyridine-3-carbonitrile]",–
95,302,"Cc1cc(C#N)cnc1N1CCc2ncc(-c3cnn(C4CC4)c3)cc2C1 [compound 96, 6-[3-(1-cyclopropylpyrazol-4-yl)-7,8-dihydro-5H-1,6-naphthyridin-6-yl]-5-methyl-pyridine-3-carbonitrile]",–
81,680,"Cc1cc(C#N)cnc1N1CCc2ncc(-c3cnn(Cc4ccccc4)c3)cc2C1 [compound 97, 6-[3-(1-benzylpyrazol-4-yl)-7,8-dihydro-5H-1,6-naphthyridin-6-yl]-5-methyl-pyridine-3-carbonitrile]",–
79,407,"Cc1cc(C#N)cnc1N1CCc2ncc(-c3cnn(C4CCCC4)c3)cc2C1 [compound 98, 6-[3-(1-cyclopentylpyrazol-4-yl)-7,8-dihydro-5H-1,6-naphthyridin-6-yl]-5-methyl-pyridine-3-carbonitrile]",–
57,740,"Cc1cc(C#N)cnc1N1CCc2ncc(-c3cnn(C4CCCCC4)c3)cc2C1 [compound 99, 6-[3-(1-cyclohexylpyrazol-4-yl)-7,8-dihydro-5H-1,6-naphthyridin-6-yl]-5-methyl-pyridine-3-carbonitrile]",–
80,188,"Cc1cc(C#N)cnc1N1CCc2ncc(-c3cnn(CC(F)(F)F)c3)cc2C1 [compound 100, 5-methyl-6-[3-[1-(2,2,2-trifluoroethyl)pyrazol-4-yl]-7,8-dihydro-5H-1,6-naphthyridin-6-yl]pyridine-3-carbonitrile]",–
91,339,"Cc1cc(C#N)cnc1N1CCc2ncc(-c3cnn(C4CCC4)c3)cc2C1 [compound 101, 6-[3-(1-cyclobutylpyrazol-4-yl)-7,8-dihydro-5H-1,6-naphthyridin-6-yl]-5-methyl-pyridine-3-carbonitrile]",–
86,362,"Cc1cc(C#N)cnc1N1CCc2ncc(-c3cnn(CC4CC4)c3)cc2C1 [compound 102, 6-[3-[1-(cyclopropylmethyl)pyrazol-4-yl]-7,8-dihydro-5H-1,6-naphthyridin-6-yl]-5-methyl-pyridine-3-carbonitrile]",–
95,158,"Cc1cc(C#N)cnc1N1CCc2ncc(-c3cn(C)nc3C)cc2C1 [compound 103, 6-[3-(1,3-dimethylpyrazol-4-yl)-7,8-dihydro-5H-1,6-naphthyridin-6-yl]-5-methyl-pyridine-3-carbonitrile]",–
99,216,"Cc1cc(C#N)cnc1N1CCc2ncc(-c3cnn(C)c3)cc2C1 [compound 104, 5-methyl-6-[3-(1-methylpyrazol-4-yl)-7,8-dihydro-5H-1,6-naphthyridin-6-yl]pyridine-3-carbonitrile]",–

Compound,Emax at 30 µM [%],EC50 [nM],Emax [%]
"Cc1nc(Cl)c(C)c(N2CCc3ncccc3C2)n1 [compound 83, 6-(6-chloro-2,5-dimethyl-pyrimidin-4-yl)-7,8-dihydro-5H-1,6-naphthyridine]",–,1540,77
"Cc1c(Cl)nc(C2CC2)nc1N1CCc2ncccc2C1 [compound 84, 6-(6-chloro-2-cyclopropyl-5-methyl-pyrimidin-4-yl)-7,8-dihydro-5H-1,6-naphthyridine]",–,2240,71

# From patent publication US20250230155A1 (Vanderbilt University, priority 2021, published 2025)
